Reference: patent US20220249484A1, “METHODS FOR PREDICTING RESPONSIVENESS OF CANCER TO FERROPTOSIS-INDUCING THERAPIES” (Memorial Sloan Kettering Cancer Center, priority 2019, published 2022)

What was measured:
[1] = test system: HCT116-derived xenograft tumors; assay: shLats1/2 HCT116 subcutaneous xenograft treated with IKE; type: in vivo, nude mice
Description: For shLats1/2 s.c. tumor models, female athymic nu/nu mice aged 6 to 8 weeks were injected in the right flank with 2×10^6 shNT HCT116 cells or shLats1/2 HCT116 cells. Tumors were measured with calipers every day. When tumors reached a mean volume of 90 mm^3, mice were randomized into four groups and treated with vehicle (65% D5W (5% dextrose in water), 5% Tween-80, 30% PEG-400) or 50 mg/kg IKE (65% D5W (5% dextrose in water), 5% Tween-80, 30% PEG-400) via IP injection once a day. At the end of the study, mice were euthanized with CO2 and tumors were taken for measurement of weight.
To determine whether Lats1/2, the kinases that directly phosphorylate and inactivate YAP, can have similar effects in vivo as Merlin, subcutaneous xenograft tumors were formed from HCT116 cells harboring hairpins targeting Lats1/2. In particular, HCT116 cells containing non-targeting hairpins or hairpins targeting both Lats1 and 2 were injected subcutaneously into nude mice (n=6 per group). Tumors were grown to a volume of 90 mm^3, at which point they were injected […] with 50 mg/kg imidazole ketone erastin (IKE) once a day for 12 days. Tumor volume was measured daily by caliper. Images of resected tumors and their masses were also quantified (FIGS. 19B-19C). Imidazole ketone erastin (IKE) is an erastin analog that is amenable for in vivo use because of the increased solubility and stability.

[2] = test system: tumor spheroids of HCT116 cells; assay: Erastin-induced cell death in HCT116 tumor spheroids; type: cell-based, human; settings: 15 μM erastin with 2 μM Fer-1, 30 h
Description: Generation of three-dimensional spheroids. Spheroids were generated by plating tumor cells at 10^3/well into U-bottom Ultra Low Adherence (ULA) 96-well plates (Corning, Tewksbury, Mass., USA). Optimal three-dimensional structures were achieved by centrifugation at 600 g for 5 min followed by addition of 2.5% Matrigel (Corning). Plates were incubated for 72 h at 37° C., 5% CO2, 95% humidity for formation of a single spheroid of cells. Spheroids were then treated with erastin in fresh medium containing Matrigel for the indicated time.
Measurement of cell death, cell viability and lipid peroxidation. Cell death was analyzed by propidium iodide (Invitrogen, Waltham, Mass., USA) or SYTOX Green (Invitrogen) staining followed by microscopy or flow cytometry. For 3D spheroids, cell viability was determined using the CellTiter-Glo® 3D Cell Viability Assay (Promega, Madison, Wis., USA) according to the manufacturer's instructions. Viability was calculated by normalizing ATP levels to spheroids treated with normal full media. […]
Tumor spheroids generated from shEcad, shMerlin and shLats1/2 cells were treated with 15 μM erastin with or without 2 μM Fer-1 for 30 h, and dead cells were stained green by SYTOX Green. Cell viability within the tumor spheroids was measured by determining ATP levels. […]

HCT116 cells [3] = assay: Ferroptosis in HCT116 cells expressing PAK-CAAX; type: cell-based, human
MEFs = assay: Ferroptosis and lipid ROS in MEFs; type: cell-based, mouse; settings: Ferrostatin-1 2 μM; cystine starvation, erastin or RSL3
Description: (§1) Measurement of cell death, cell viability and lipid peroxidation. Cell death was analyzed by propidium iodide (Invitrogen, Waltham, Mass., USA) or SYTOX Green (Invitrogen) staining followed by microscopy or flow cytometry. For 3D spheroids, cell viability was determined using the CellTiter-Glo® 3D Cell Viability Assay (Promega, Madison, Wis., USA) according to the manufacturer's instructions. Viability was calculated by normalizing ATP levels to spheroids treated with normal full media. To analyze lipid peroxidation, cells were stained with 5 μM BODIPY-C11 (Invitrogen) for 30 minutes at 37° C. followed by flow cytometric analysis.
Merlin-regulated ferroptosis in cell density dependent manner was also observed in MEFs, which are not of epithelial origin. Cell death of MEFs with different cell density induced by cystine starvation for 12 h was measured by PI staining (FIG. 15A), and flow cytometry (FIG. 15B). The effect of cystine starvation on lipid ROS production in MEFs cells with different cell density (6 h treatment) is also shown in FIG. 15B. […] As shown in FIGS. 15A-15D, increased cell density mitigated both cell death and lipid ROS generation induced by cystine starvation, erastin and RSL3 in MEFs.
MEFs also regulated the activity of YAP at high density in a Merlin-dependent manner. MEFs seeded at increasing density were probed for YAP localization by Immunofluorescence (FIG. 15E). The effect of Merlin was assessed by infecting MEFs with shMerlin lentivirus and selected with puromycin. […] As shown in FIGS. 15E-15F, with increasing cell confluence, there was an increase of YAP nuclear exclusion in MEFs, which was attenuated by Merlin knockdown.

HCT116 cells [4] = assay: Ferroptosis in confluent HCT116 cells expressing shEcad, shMerlin or shLats1/2; type: cell-based, human; settings: cystine starvation or RSL3 plus
Description: as §1
The involvement of the Hippo signaling in the regulation of ferroptosis by cell-cell contact was also assessed. Cells depleted of Ecad, Merlin, or Lats were generated using shRNA technology. HCT116 cells were infected by lentiviruses expressing shRNA sequences targeting Ecad (shEcad), Merlin (shMerlin), or Lats1/2 (shLats1/2), as indicated. Knockdown efficiency was confirmed by Western blot (FIG. 2B). […] Cell death was measured at 30 h using SYTOX Green staining followed by flow cytometry. Lipid ROS was measured at 24 hours using C11-BODIPY staining coupled with flow cytometry. […] Cell death was measured at 18 h and lipid ROS was measured at 14 h (FIG. 11A).

MSTO-211H cells = assay: Ferroptosis in confluent MSTO-211H cells (shMerlin, shNcad); type: cell-based, human
Description: as §1
To confirm the ferroptosis-regulating role of Merlin in mesothelioma cells, the effect of Merlin knockdown on ferroptosis sensitivity was assessed. MSTO-211H cells were infected with lentiviruses expressing shMerlin. RNAi knockdown efficiency was confirmed by Western blot (FIG. 3F). Then, shNT or shMerlin MSTO-211H cells were cultured to high confluence, at which point they were treated with media containing or lacking cystine, with or without Fer-1 for 24 h. Cell death was measured by SYTOX Green staining followed by flow cytometry (FIG. 3G). To measure lipid reactive species, shNT or shMerlin MSTO-211H cells were treated for 18 h, at which point they were stained with 2 μM C11-BODIPY for lipid ROS measurement (FIG. 311). Confluent MSTO-211H cells expressing shNT or shMerlin were also treated with 1 μM RSL3 with or without […] Fer-1. Cell death (left, 24 h after treatment) and lipid ROS production (right, 16 h) were measured (FIG. 13B).
Therefore, the cell density dependence of ferroptosis is not limited to epithelial cells expressing Ecad. […] To assess the expression of N-cadherin in MSTO-211H mesothelioma cells, the cells were cultivated at different cell densities, and the levels of Ncad, p-YAP and total YAP were analyzed by Western blot. […] Therefore, the potential role of Ncad in ferroptosis was tested. MSTO-211H cells were infected with lentiviruses expressing Ncad shRNA (shNcad) and selected with puromycin.

HCT116 cells [5] = assay: Cell death inhibitors in sparse HCT116 cells under cystine starvation or RSL3; type: cell-based, human; settings: 5×10^4 cells/well; for inhibition of RSL3-induced cell death: 5 μM RSL3 24 h, with cell death inhibitors; for inhibition of cystine starvation-induced cell death: cystine-free media 30 h, Fer-1 1 μM, DFO 50 μg/mL, Z-VAD-FMK 20 μM, GSK'872 10 μM
Description: as §1
To confirm that sparse HCT116 cells were dying from ferroptosis but not another cell death modality, various cell death inhibitors were tested: ferrostatin-1 (Fer-1) and DFO, which inhibit ferroptosis, Z-VAD-FMK, a pan-caspase inhibitor, and GSK'872, a selective RIPK3 inhibitor that blocks necroptosis. HCT116 cells were seeded at a density of 5×10^4 cells/well and grown for 24 hours. Cells were washed in PBS and cultured in cystine-free media with the indicated treatments for 30 h. Fer-1: Ferrostatin-1, 1 μM; DFO: iron chelator, 50 μg/mL; Z-VAD-FMK: pan-caspase inhibitor, 20 μM; GSK'872: RIPK3 inhibitor, 10 μM. HCT116 cells were seeded at a density of 5×10^4 cells/well and grown for 24 hours, then treated with 5 μM RSL3 and the indicated cell death inhibitors for 24 hours before measuring cell death. These experiments confirmed that cells underwent ferroptosis, instead of other modes of cell death, under these conditions (FIGS. 6C-6D). Similar cell density-dependent ferroptosis was previously observed by Seiler et al., Cell Metab. 8: 237-248 (2008) and Schneider et al., Neoplasia 12:254-263 (2010). In Seiler et al., mouse embryonic fibroblasts (MEFs) harboring two floxed GPX4 alleles survived and grew when seeded at high density, but upon passage at lower density they died rapidly. In Schneider et al., GPX4-deficient MEFs formed 3D tumor spheroids as well as wild-type MEFs by an unknown mechanism.

HCT116 cells [6] = assay: Verteporfin and cystine starvation-induced ferroptosis; type: cell-based, human; settings: verteporfin 0.5 μM
Description: (§2) To further confirm this conclusion, a pharmacological analysis was performed. As a transcriptional coactivator, YAP regulates the expression of multiple target genes through its interaction with the TEAD family of transcriptional factors. Verteporfin (VP), a pharmacological agent that can inhibit the interaction of YAP with the TEAD family members was used to determine the effect of Merlin on ferroptosis. […] YAP^S127A-expressing cells were also treated with verteporfin (0.5 μM) after 24 h of cystine starvation in shMerlin HCT116 or 211H cells.

211H cells = assay: as above; type: cell-based, human; settings: verteporfin 0.5 μM
Description: as §2

malignant mesothelioma = settings: clinical trials; cited from earlier work
HCT116 cells [7] = assay: Sorafenib-induced ferroptosis; type: cell-based, human; settings: 10 μM sorafenib
Description: (§3) The effect of sorafenib on cell density-dependent ferroptosis was determined. First, HCT116 cells were seeded at a density of 0.5×10^5 cells/3.5 cm2 well (sparse) or 4×10^5 cells/3.5 cm2 well (confluent) and grown for 24 h. Cells were then treated with DMSO, 10 μM sorafenib, or 10 μM sorafenib and 2 μM Fer-1 as indicated. […] Second, ΔEcad or the parental HCT116 cells were seeded at 4×10^5 cells/3.5 cm2 well and grown for 24 h. Cells were then treated with 10 μM sorafenib and 2 μM Fer-1 as indicated. Third, HCT116 shNT or shMerlin cells, MSTO-211H shNT or shMerlin cells, HCT116 cells expressing YAP^S127A or the parental cells, MSTO-211H cells expressing YAP^S127A or the parental cells, and HCT116 shNT or shLats1/2 cells were seeded at high density and treated with 10 μM sorafenib and 2 μM Fer-1 as indicated.

211H mesothelioma cells = assay: Sorafenib-induced ferroptosis; type: cell-based, human; settings: 10 μM sorafenib
Description: as §3

CC(C)Oc1ccc(C(=O)Cn2ccnc2)cc1-n1c(CN2CCN(C(=O)COc3ccc(Cl)cc3)CC2)nc2ccccc2c1=O [IKE, imidazole ketone erastin]
mass of resected xenograft tumors ([1]; Lats1/2 depleted HCT116 tumors, 50 mg/kg IKE once a day): reduced | xenograft tumor growth (volume) ([1]; shLats1/2 HCT116 tumors, 50 mg/kg IKE once a day for 12 days): grew slowly or receded

CCOC(=O)c1ccc(NC2CCCCC2)c(N)c1 [Fer-1, Ferrostatin-1]
block of erastin-induced cell death in spheroids by Fer-1 [2]: blocked cell death | inhibition of RSL3-induced ferroptosis in PAK-CAAX cells by Fer-1 (HCT116 cells [3]): inhibited | inhibition of cystine deprivation-induced ferroptosis in PAK-CAAX cells by Fer-1 (HCT116 cells [3]): inhibited | block of cell death and lipid ROS in confluent Merlin RNAi MEFs (MEFs): blocked | block of cell death by Fer-1, confluent knockdown cells (HCT116 cells [4]): blocked cell death | block of RSL3-induced ferroptosis and lipid ROS in shMerlin cells by Fer-1 (MSTO-211H cells; 1 μM RSL3 with 204 Fer-1): blocked | block of lipid ROS production in cystine-deprived shMerlin cells by Fer-1 (MSTO-211H cells; high confluence, 18 h): blocked | block of cystine deprivation-induced ferroptosis in shMerlin cells by Fer-1 (MSTO-211H cells; high confluence, cystine-free 24 h): blocked | inhibition of RSL3-induced cell death (HCT116 cells [5]): inhibited | inhibition of cystine starvation-induced cell death (HCT116 cells [5]): inhibited

CC(=O)N(O)CCCCCNC(=O)CCC(=O)N(O)CCCCCNC(=O)CCC(=O)N(O)CCCCCN [DFO]
inhibition of RSL3-induced cell death (HCT116 cells [5]): inhibited | inhibition of cystine starvation-induced cell death (HCT116 cells [5]): inhibited

Verteporfin
effect of Merlin knockdown and YAP^S127A overexpression on cystine starvation-induced ferroptosis (HCT116 cells [6]; high density): ablated the effect of Merlin knockdown and YAP^S127A overexpression | sensitivity of shMerlin cells to cystine starvation-induced ferroptosis (HCT116 cells [6]; 24 h cystine starvation): reduced cells sensitivity to ferroptosis | effect of Merlin knockdown and YAP^S127A overexpression on cystine starvation-induced ferroptosis (211H cells; high density): ablated the effect of Merlin knockdown and YAP^S127A overexpression | sensitivity of shMerlin cells to cystine starvation-induced ferroptosis (211H cells; 24 h cystine starvation): reduced cells sensitivity to ferroptosis

CNC(=O)c1cc(Oc2ccc(NC(=O)Nc3ccc(Cl)c(C(F)(F)F)c3)cc2)ccn1 [sorafenib]
clinical outcome in malignant mesothelioma (malignant mesothelioma): can stabilize, but not necessarily treat mesothelioma | sorafenib-induced ferroptosis at high cell density after loss of Ecad, Lats1/2, inhibition of Merlin or activation of YAP (HCT116 cells [7]): sensitize these cells to sorafenib-induced ferroptosis at high cell density | sorafenib-induced ferroptosis, sparse versus confluent cells (HCT116 cells [7]): could induce cell density-dependent ferroptosis | sorafenib-induced ferroptosis at high cell density after inhibition of Merlin or activation of YAP (211H mesothelioma cells): sensitize these cells to sorafenib-induced ferroptosis at high cell density
